Data published in paper PMC3356457 (Nature, 2012).
Read-outs that look alike come from different tables or passages of the source.

Key:
KOR [1] = details: cited from earlier work
hKOR E297A = hKOR E297A (Homo sapiens, UniProt P41145, E297A); type: binding
KOR [2] = details: agonist; cited from earlier work
KOR [3] = details: cited from earlier work; remark: listed apart in the source
[4] = cited from earlier work
KOR [5] = molecular target: KOR (Homo sapiens, UniProt P41145); type: cell-based
KOR [6] = details: cited from earlier work; remark: listed apart in the source
[7] = cited from earlier work; remark: listed apart in the source

Chain of KOR (Homo sapiens, UniProt P41145) (P41145 whole entry): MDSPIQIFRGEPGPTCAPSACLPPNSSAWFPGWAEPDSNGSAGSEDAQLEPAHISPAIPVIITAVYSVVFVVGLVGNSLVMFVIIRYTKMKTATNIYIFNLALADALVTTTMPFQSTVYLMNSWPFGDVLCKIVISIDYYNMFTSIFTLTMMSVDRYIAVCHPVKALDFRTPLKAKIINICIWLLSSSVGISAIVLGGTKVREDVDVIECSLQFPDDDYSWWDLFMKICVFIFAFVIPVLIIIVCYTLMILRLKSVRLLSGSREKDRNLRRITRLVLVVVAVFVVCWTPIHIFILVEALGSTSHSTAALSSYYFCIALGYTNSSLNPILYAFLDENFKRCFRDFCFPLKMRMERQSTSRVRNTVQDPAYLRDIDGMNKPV
Chain of hKOR E297A (P41145 whole entry E297A): as the sequence (P41145 whole entry) above, with E297A counted along it

SMILES: NC(N)=Nc1ccc2[nH]c3c(c2c1)C[C@@]1(O)[C@H]2Cc4ccc(O)c5c4[C@@]1(CCN2CC1CC1)[C@H]3O5 [GNTI]
- Effect of Glu297Ala mutation on binding (hKOR E297A): significant drop

SMILES: COC(=O)[C@@H]1C[C@H](OC(=O)CSC#N)C(=O)[C@H]2[C@@]1(C)CC[C@H]1C(=O)O[C@H](c3ccoc3)C[C@]21C [RB-64, 22-thiocyanatosalvinorin A]
- EC50 (KOR [2]): 0.077 nM
- Ki (KOR [3]): 0.59 nM

SMILES: CC(C)[C@@H](CN1CC[C@@](C)(c2cccc(O)c2)[C@@H](C)C1)NC(=O)[C@H]1Cc2ccc(O)cc2CN1 [JDTic, (3R)-7-hydroxy-N-[(1S)-1-(((3R,4R)-4-(3-hydroxyphenyl)-3,4-dimethyl-1-piperidinyl)methyl)-2-methylpropyl]-1,2,3,4-tetrahydro-3-isoquinoline-carboxamide]
- Activity in rodent models of depression, anxiety, stress-induced cocaine relapse, and nicotine withdrawal [4]: robust activity
- Agonist activity, Gi-mediated (canonical) signaling (KOR [5]): devoid of agonist activity
- Blockade of the effects of agonist U69593, Gi-mediated signaling (KOR [5]): completely blocked
- Effect of Glu297Ala mutation on binding (hKOR E297A): did not affect
- Effect on κ-agonist U50,488-induced antinociception (KOR [6]): blocks
- Effect on μ-agonist induced analgesia [7]: not antagonizing
